melting point	SMILES
129 to 131 °C	O=C1C=CC(=O)N1c1cccc([N+](=O)[O-])c1
194 to 196 °C	Nc1ccc(F)c(NC(=O)Cn2cncn2)c1
82 to 84 °C	CC(C)CN1C(=O)C(=O)c2ccccc21
90 to 91 °C	COc1ccccc1N1C(=O)C=CC1=O
217 to 219 °C	O=C(O)c1cccc(NS(=O)(=O)c2cc(Cl)ccc2Cl)c1
111 to 113 °C	O=C1NCCNC1c1cccs1 (stereo unspecified)
98 to 100 °C	CCOC(=O)c1nc(NCc2ccccc2)sc1C
132 to 134 °C	CC(=O)c1ccc(NS(=O)(=O)c2ccc(Cl)cc2)cc1
47 to 49 °C	COc1ccc(Oc2ccc(Cl)cc2N)cc1
224 to 226 °C	Cc1nnc(S)n1-c1ccccc1
132 to 134 °C	Cc1cc(F)c(S(N)(=O)=O)cc1F
154 to 156 °C	CNC(=O)c1cc(S(=O)(=O)Cl)cn1C
131 to 133 °C	O=C(O)COc1ccc(S(=O)(=O)Cl)cc1F
294 to 296 °C	NS(=O)(=O)c1ccc(CCn2c(S)nc3ccccc3c2=O)cc1
218 to 220 °C	Cc1cc(S(=O)(=O)Nc2sc3c(c2C(N)=O)CCC(C)C3)ccc1Br (stereo unspecified)
158 to 160 °C	O=C(O)c1cc(Cl)ccc1Sc1ccc(Cl)cc1

melting point	SMILES
80 to 82 °C	CC(C)(C)OC(=O)NCC1CNc2ccccc21 (stereo unspecified)
179 to 181 °C	CS(=O)(=O)c1ccsc1C(=O)O
95 to 100 °C	CCOc1ccc(NC(=O)CC#N)cc1
98 to 100 °C	O=C(O)c1cc(S(=O)(=O)NCCCN2CCCC2=O)ccc1Cl
219 to 221 °C	O=C(CCl)NC(Cc1ccccc1)c1ccccc1 (stereo unspecified)
59 to 61 °C	CCCCCCOC(=O)c1ccc(N)cc1
138 to 140 °C	NC(=O)c1cccc2[nH]ccc12
49 to 51 °C	N#Cc1cc(S(=O)(=O)Cl)ccc1Cl
103 to 105 °C	CS(=O)(=O)c1cccc(Oc2ccc(N)cc2)c1
203 to 205 °C	COc1cc(S(N)(=O)=O)c(OC)cc1N
259 to 261 °C	Cc1ccc2nc(-c3ccc(N4C(=O)C=CC4=O)cc3)sc2c1
167 to 169 °C	CC(N)c1ccccc1NS(=O)(=O)c1cccs1 (stereo unspecified)
63 to 65 °C	COc1ccc(Br)c(S(=O)(=O)Cl)c1
154 to 156 °C	CCSc1ccc(Cl)cc1C(=O)O
50 to 52 °C	N#Cc1ccc(Oc2cccnc2)cc1
290 to 292 °C	CNC(C(=O)O)c1ccccc1C(F)(F)F (stereo unspecified)

More lines, now with the values behind:

SMILES	melting point
CC(C)(C)OC(=O)N1CCC(C(=O)O)(C(=O)O)C1	131 to 133 °C
Cc1cc(C)n2ncc(C(=O)O)c2n1	176 to 178 °C
CCOC(=O)c1sc(N)c(C(N)=O)c1C	197 to 199 °C
NS(=O)(=O)CC(=O)O	119 to 121 °C
CC1C(=O)Nc2cc(C(=O)O)ccc2N1C (stereo unspecified)	289 to 291 °C
Sc1nnc(N2CCOCC2)n1Cc1ccco1	151 to 153 °C
O=C(CCl)N1CCCC1	56 to 58 °C
CCCC1CCc2nc(N)sc2C1 (stereo unspecified)	78 to 80 °C
O=C1NCCC1c1ccccc1 (stereo unspecified)	82 to 84 °C
CCC(Br)C(N)=O (stereo unspecified)	108 to 110 °C
NC(=O)c1c[nH]cn1	194 to 196 °C
CC(C)(C)NC(=O)CC1(C(=O)O)CCCC1	201 to 203 °C
Sc1nnc(NC2CCCCC2)s1	144 to 146 °C
O=C(O)C1CCN(S(=O)(=O)c2ccc(F)c(Cl)c2)CC1	190 to 192 °C
O=Cc1cccc2c1OCO2	34 to 36 °C
O=C(O)CCC(=O)c1ccc(I)cc1	175 to 177 °C
CCOC(=O)c1c(C)[nH]c(C(=O)O)c1C	204 to 206 °C
CC(C)(F)c1nc(N)nc(Cl)n1	169 to 171 °C
c1c[nH]c(CN2CCNCC2)n1	153 to 155 °C
CCOC(=O)N1CCc2nnc(Cl)cc2C1	106 to 108 °C
O=c1[nH]cc(N2CCOCC2)c(=O)[nH]1	304 to 306 °C
NNc1nc2cc(F)c(F)cc2[nH]1	221 to 223 °C
CC1C(=O)NCCN1C(=O)c1ccco1 (stereo unspecified)	149 to 151 °C
Cc1ncc(Br)n1C	92 to 94 °C

From a melting point compilation (Tetko et al.)
